Results on 3 compounds are retold here after patent publication US20240293345A1, “COMBINATIONS OF LOCAL ANESTHETICS FOR IMPROVED PAIN RELIEF” (priority 2021, published 2024).

The conditions of data set [1]: local anesthesia or nerve blocks; cited from earlier work.
Data set [2] in a line: Local anesthesia for a dislocated shoulder (incident described by patient 192293). The format is in vivo, human. The following applies: three attempts of administration, patient's own account.
Data set [3] is described as follows: Case studies: local anesthesia by injection to the mouth region before dental procedures. The format is in vivo, human. The following applies: for anesthetic effect of one local anesthetic alone: cases previously observed by the inventors; for local anesthetic effect / pain relief during dental procedures: patients with a history of poor pain relief after just one local anesthetic, injection to mouth region. An excerpt: The experiments and disclosures provided herein are based on 9 case studies performed on patients that had, or previously has had phenotype red hair. The inventors performed odontological procedures on the patients and compared pain relief to prior experiences with local anesthetics.
9 patients with a history of poor pain relief after administration of just one local anesthetic received a combination of lidocaine and prilocaine before various dental procedures where performed. The patients pain sensation was the noted in case studies kept at the inventor's clinic.
Commercially available Xylocain Dental Adrenaline (lidocaine HCL 20 mg/mL with epinephrine 12.5 μg/mL) and Citanest Dental Octopressin (prilocaine HCL 30 mg/mL and felypressin 0.54 μg/mL) was administered by injection to mouth region of the patient for pain relief. Both Xylocain Dental Adrenaline and Citanest Dental Octopressin was provided in cartridges containing 1.8 mL of solution comprising active ingredients in said concentrations.

The conditions of data set [4]: given subcutaneously; cited from earlier work.
The conditions of data set [5]: in vivo; cited from earlier work.

The structures appear in SMILES notation.

Take `CCN(CC)CC(=O)Nc1c(C)cccc1C` [lidocaine]: in data set [1], the onset of effect result is reported as “within several minutes”. In addition, in data set [2], the pain relief result is “without obtaining adequate pain relief”. Moreover, in data set [3], the “anesthetic effect of one local anesthetic alone” value is listed as “did not provide adequate anesthetic effect” and the “local anesthetic effect / pain relief during dental procedures” value is recorded as “Poor effect”. The “local anesthetic effect / pain relief during dental procedures” value in data set [3] (listed as Lidocaine) was “not effective”. Besides, the “anesthetic effects in redheads” value in data set [4] is reported as “resistant to the anesthetic effects”.

On to `CCN(CC)CCOC(=O)c1ccc(N)cc1` [novocaine], for which, in data set [4], the “anesthetic effects in redheads” value was “resistant to the anesthetic effects”.

Regarding `CCCNC(C)C(=O)Nc1ccccc1C` (stereo not drawn) [prilocaine], the “anesthetic effect of one local anesthetic alone” value in data set [3] is “did not provide adequate anesthetic effect”. The metabolism and excretion result in data set [5] was “rapidly metabolized by the liver and excreted in the urine as o-toluidine”.
